These results are taken from ChEMBL document CHEMBL3045899, “New asperxanthone and asperbiphenyl from the marine fungus Aspergillus sp” (2009).

The structures appear in SMILES notation.

The experiment has as its system Tobacco mosaic virus. Kind of experiment: Inhibitory activity against Tobacco mosaic virus (TMV) inoculated in Nicotiana tabacum L. cv.K326 leaf assessed as inhibition of virus multiplication at 0.2 mg/ml measured by leaf disk method (reference value: 0%). Format: functional.
As for `CCCCCCCC/C=C/C=C/CCCCCCCCCCCCCCCCCCCCCC(=O)OC(CO)CO`, the inhibition at 200 µg/mL stood at 16.3%.
As for `CCCCCCCC/C=C/C=C/CCCCCCCCCCCCCC/C=C/C=C/CCCC(=O)OC(CO)CO`, the figure is 14.3%.
For `CCCCCCCCCCCCCCCCCCCCCCCCCC/C=C/C=C/C=C/CCC(=O)OC(CO)CO` the value was 13.9%.
For `CCCCCCCC/C=C/C=C/CCCCCCCCCCCCCC/C=C/C=C/CCCC(=O)OCC(O)CO` (centres undefined) the value was 17.4%; for `CCCCCCCCCC/C=C/C=C/CCCC(=O)OCC(O)CO` (centres undefined), 12.5%.
As for `CCCCCCCCCCC/C=C/C=C/CCCC(=O)OCC(O)CO` (centres undefined), the inhibition at 200 µg/mL is 14.9%.
For `CCCCCCC/C=C/C=C/CCCC(=O)OC(CO)CO` the value was 14.2%; for `Cc1c(O)c(-c2c(O)c(C)c3c(c2O)CO[C@H](C)[C@H]3C)c(O)c2c1[C@@H](C)[C@H](C)OC2` [ASPERBIPHENYL], 35.5%.
For `COc1cc2oc3cccc(O)c3c(=O)c2c2c1[C@@H]1C=CO[C@@H]1O2` [ASPERXANTHONE] the value was 62.9%.
